{"source": "patent US20240066027A1", "about": "(DOMAIN THERAPEUTICS, priority 2020, published 2024)"}
{"molecular_target": "T1, human PAR-2 (hPAR-2) receptor expressed in HEK-293 T cells in an endogenous manner (Homo sapiens, UniProt P55085)", "T1 construct": "human PAR-2 (hPAR-2) receptor expressed in HEK-293 T cells in an endogenous manner; endogenous in cells; host or cells: HEK-293 T cells", "T1 sequence (P55085 26-397)": "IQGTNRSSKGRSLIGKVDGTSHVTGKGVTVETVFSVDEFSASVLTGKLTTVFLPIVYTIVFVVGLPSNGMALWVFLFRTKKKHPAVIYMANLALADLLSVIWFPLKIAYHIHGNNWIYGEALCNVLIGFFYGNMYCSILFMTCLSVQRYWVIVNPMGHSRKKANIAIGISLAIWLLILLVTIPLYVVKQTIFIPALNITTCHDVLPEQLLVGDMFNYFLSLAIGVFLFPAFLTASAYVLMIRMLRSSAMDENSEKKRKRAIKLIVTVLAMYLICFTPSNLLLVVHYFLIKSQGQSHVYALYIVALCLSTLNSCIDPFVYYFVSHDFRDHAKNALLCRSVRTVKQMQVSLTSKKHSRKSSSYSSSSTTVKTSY", "assay": "In vitro human PAR-2 functional antagonist activity using calcium assays (Fluo4AM, FLIPR Tetra)", "assay_type": "cell-based", "details": "HEK-293 T cells stimulated by an EC80 of the 2-Furoyl-LIGRLO-NH2 peptide after 10 min incubation with compound; 20 concentrations, duplicate, two independent experiments", "protocol": "In vitro human PAR-2 functional antagonist activity using calcium assays\nExamples of the present invention were tested successively for their agonist and antagonist activities on human PAR-2 (hPAR-2) receptor expressed in HEK-293 T cells in an endogenous manner. Compounds exert agonist activity if, by themselves in absence of the 2-Furoyl-LIGRLO-NH2 peptide (selective hPAR-2 agonist), they activate PAR-2; they exert antagonist activity if they decrease the action of the 2-Furoyl-LIGRLO-NH2 peptide on the receptor. The assay used to determine compound activity is based on calcium measurement.\nCell Culture: HEK-293 T cells were maintained in Dulbecco's Modified Eagle's Medium supplemented with 10% Foetal Calf Serum, 1% Penicillin/Streptomycin at 37° C./5% CO2. Flasks for tests (F75) are seeded with 6e+06 cells 24 h before the experiment at 37° C./5% CO2.\nCalcium assay: Receptor activity was detected by changes in intracellular calcium measured using the fluorescent Ca^2+ sensitive dye, Fluo4AM (Molecular Probes).\nThe day of the assay, medium was replaced by assay buffer (HBSS 1× (Gibco 14175-053), Hepes 20 mM, MgSO4-7H2O 1 mM, Na2CO3 3.3 mM, CaCl2-2H2O 1.3 mM, 0.5% BSA, Probenecid 2.5 mM, 0.1 mg/mL Pluronic Acid) and complemented with 1 μM Fluo4AM and cells were incubated during 1:30 h at 37° C.\nCells were then detached, resuspended in assay buffer and seeded in 384 wells, transparent-flat bottom black walled plates (2e+04 cells per well). Plates were incubated at +22° C. for 20 min. Compounds stock solutions were prepared in 100% DMSO and dilutions in test buffer were carried out in polypropylene plates with a digital dispenser (D300e, Tecan). Compounds were added to the cells and intracellular Ca^2+ measurements were collected at the same time on FLIPR Tetra® (Molecular Devices) with specific filters (Exc: 470-495 nm/Em: 515-575 nm).\nAgonist and antagonist activities of compounds were consecutively evaluated on the same cell plate. Agonist activity was first measured after 10 min incubation with the compound alone. Then, cells were stimulated by an EC80 of the 2-Furoyl-LIGRLO-NH2 peptide and fluorescence was recorded for an additional 5 min. EC80 of the 2-Furoyl-LIGRLO-NH2 peptide was the concentration giving 80% of the maximal 2-Furoyl-LIGRLO-NH2 response. Agonist activities are evaluated in comparison to basal signals evoked by assay buffer or maximal 2-Furoyl-LIGRLO-NH2 response. […] Antagonist activities are evaluated in comparison to basal signals evoked by assay buffer or EC80 of 2-Furoyl-LIGRLO-NH2 alone.", "units": {"IC50": "nM"}}
{"compound": "Cc1c(-c2ccc(Cl)c(F)c2)c2ccc(C(=O)N3CCNC(=O)C3(C)C)nc2n1CC(C)C", "note": "[Example 38, 4-(3-(4-chloro-3-fluorophenyl)-1-isobutyl-2-methyl-1H-pyrrolo[2,3-b]pyridine-6-carbonyl)-3,3-dimethylpiperazin-2-one]", "IC50": "< 20"}
{"compound": "COC[C@@H](C)n1cc(-c2ccc(Cl)c(F)c2)c2ccc(C(=O)N3CCN(c4cc(C)c(C(=O)O)c(C)n4)CC3(C)C)nc21", "note": "[Example 140, (R)-6-(4-(3-(4-chloro-3-fluorophenyl)-1-(1-methoxypropan-2-yl)-1H-pyrrolo[2,3-b]pyridine-6-carbonyl)-3,3-dimethylpiperazin-1-yl)-2,4-dimethyinicotinic acid]", "IC50": "< 20"}
{"compound": "CC(C)(C#N)c1ccnc(N2CCN(C(=O)c3ccc4c(-c5ccc(Cl)c(F)c5)cn(C(C)(C)C)c4n3)C(C)(C)C2)c1", "note": "[Example 176, 2-(2-(4-(1-(tert-butyl)-3-(4-chloro-3-fluorophenyl)-1H-pyrrolo[2,3-b]pyridine-6-carbonyl)-3,3-dimethylpiperazin-1-yl)pyridin-4-yl)-2-methylpropanenitrile]", "IC50": "< 20"}
{"compound": "Cc1cc(N2CCN(C(=O)c3ccc4c(-c5ccc(Cl)c(F)c5)cn(CC5(C)COC5)c4n3)C(C)(C)C2)nc(C)c1C(=O)O", "note": "[Example 181, 6-(4-(3-(4-chloro-3-fluorophenyl)-1-((3-methyloxetan-3-yl)methyl)-1H-pyrrolo[2,3-b]pyridine-6-carbonyl)-3,3-dimethylpiperazin-1-yl)-2,4-dimethylnicotinic acid]", "IC50": "< 20"}
{"compound": "Cc1cc(N2CCN(C(=O)c3ccc4c(-c5ccc(Cl)c(F)c5)cn(CC5CC5)c4n3)C(C)(C)C2)nc(C)c1C(=O)O", "note": "[Example 160, 6-(4-(3-(4-chloro-3-fluorophenyl)-1-(cyclopropylmethyl)-1H-pyrrolo[2,3-b]pyridine-6-carbonyl)-3,3-dimethylpiperazin-1-yl)-2,4-dimethylnicotinic acid]", "IC50": "< 20"}
{"compound": "CC(C)Cn1cc(-c2cccc(C#N)c2)c2ccc(C(=O)N3CCNC(=O)C3(C)C)nc21", "note": "[Example 117, 3-(6-(2,2-dimethyl-3-oxopiperazine-1-carbonyl)-1-isobutyl-1H-pyrrolo[2,3-b]pyridin-3-yl)benzonitrile]", "IC50": "20 to 10000"}
{"compound": "CC1(C)C(=O)N(CC(N)=O)CCN1C(=O)c1ccc2c(-c3ccc(Cl)c(F)c3)cn(C(C)(C)C)c2n1", "note": "[Example 5, 2-(4-(1-(tert-butyl)-3-(4-chloro-3-fluorophenyl)-1H-pyrrolo[2,3-b]pyridine-6-carbonyl)-3,3-dimethyl-2-oxopiperazin-1-yl)acetamide]", "IC50": "< 20"}
{"compound": "CN(C)C(=O)CN1CCN(C(=O)c2ccc3c(-c4ccc(Cl)c(F)c4)cn(C(C)(C)C)c3n2)C(C)(C)C1=O", "note": "[Example 7, 2-(4-(1-(tert-butyl)-3-(4-chloro-3-fluorophenyl)-1H-pyrrolo[2,3-b]pyridine-6-carbonyl)-3,3-dimethyl-2-oxopiperazin-1-yl)-N,N-dimethylacetamide]", "IC50": "< 20"}
{"compound": "CC(C)Cn1cc(-c2ccc(Cl)c(Cl)c2)c2ccc(C(=O)N3CCNC(=O)C3(C)C)nc21", "note": "[Example 107, 4-(3-(3,4-dichlorophenyl)-1-isobutyl-1H-pyrrolo[2,3-b]pyridine-6-carbonyl)-3,3-dimethylpiperazin-2-one]", "IC50": "< 20"}
{"compound": "CC(C)(C)n1cc(-c2ccc(Cl)c(F)c2)c2ccc(C(=O)N3CCC(C(=O)O)CC3)nc21", "note": "[Example 162, 1-(1-(tert-butyl)-3-(4-chloro-3-fluorophenyl)-1H-pyrrolo[2,3-b]pyridine-6-carbonyl)piperidine-4-carboxylic acid]", "IC50": "20 to 10000"}
{"compound": "CCn1cc(-c2ccc(Cl)c(F)c2)c2ccc(C(=O)N3CCN(c4cc(C)c(C(=O)O)c(C)n4)CC3(C)C)nc21", "note": "[Example 129, 6-(4-(3-(4-chloro-3-fluorophenyl)-1-ethyl-1H-pyrrolo[2,3-b]pyridine-6-carbonyl)-3,3-dimethylpiperazin-1-yl)-2,4-dimethylnicotinic acid]", "IC50": "< 20"}
{"compound": "Cc1cc(NC(=O)C2CCN(C(=O)c3ccc4c(-c5ccc(Cl)c(F)c5)cn(C(C)(C)C)c4n3)CC2)nc(C)c1C(=O)O", "note": "[Example 123, 6-(1-(1-(tert-butyl)-3-(4-chloro-3-fluorophenyl)-1H-pyrrolo[2,3-b]pyridine-6-carbonyl)piperidine-4-carboxamido)-2,4-dimethylnicotinic acid]", "IC50": "20 to 10000"}
{"compound": "CC(C)Cn1cc(-c2ccc(C#N)cc2)c2ccc(C(=O)N3CCNC(=O)C3(C)C)nc21", "note": "[Example 106, 4-(6-(2,2-dimethyl-3-oxopiperazine-1-carbonyl)-1-isobutyl-1H-pyrrolo[2,3-b]pyridin-3-yl)benzonitrile]", "IC50": "20 to 10000"}
{"compound": "Cc1cc(N2CCC3(CCN(C(=O)c4ccc5c(-c6ccc(Cl)c(F)c6)cn(C(C)(C)C)c5n4)C3)C2)nc(C)c1C(=O)O", "note": "(stereo not shown) [Example 128, 6-(7-(1-(tert-butyl)-3-(4-chloro-3-fluorophenyl)-1H-pyrrolo[2,3-b]pyridine-6-carbonyl)-2,7-diazaspiro[4.4]nonan-2-yl)-2,4-dimethylnicotinic acid]", "IC50": "> 10000"}
{"compound": "CC1(C)C(=O)NCCN1C(=O)c1ccc2c(-c3ccc(Cl)c(F)c3)cn(Cc3ccncc3)c2n1", "note": "[Example 120, 4-(3-(4-chloro-3-fluorophenyl)-1-(pyridin-4-ylmethyl)-1H-pyrrolo[2,3-b]pyridine-6-carbonyl)-3,3-dimethylpiperazin-2-one]", "IC50": "20 to 10000"}
{"compound": "CC(C)(C)n1cc(-c2ccc(Cl)c(F)c2)c2ccc(C(=O)N3CCC(CC(=O)O)CC3)nc21", "note": "[Example 125, 2-(1-(1-(tert-butyl)-3-(4-chloro-3-fluorophenyl)-1H-pyrrolo[2,3-b]pyridine-6-carbonyl)piperidin-4-yl)acetic acid]", "IC50": "20 to 10000"}
{"compound": "CC(C)Cc1nn(Cc2ccc(Cl)c(F)c2)c2ccc(C(=O)N3CCNC(=O)C3(C)C)nc12", "note": "[Example 78, 4-(1-(4-chloro-3-fluorobenzyl)-3-isobutyl-1H-pyrazolo[4,3-b]pyridine-5-carbonyl)-3,3-dimethylpiperazin-2-one]", "IC50": "> 10000"}
{"compound": "COc1ccc(-c2cn(CC(C)C)c3nc(C(=O)N4CCNC(=O)C4(C)C)ccc23)cn1", "note": "[Example 105, 4-(1-isobutyl-3-(6-methoxypyridin-3-yl)-1H-pyrrolo[2,3-b]pyridine-6-carbonyl)-3,3-dimethylpiperazin-2-one]", "IC50": "20 to 10000"}
{"compound": "CC1(C)C(=O)NCCN1C(=O)c1ccc2c(-c3ccc(Cl)c(F)c3)cn(CCOCC(F)(F)F)c2n1", "note": "[Example 39, 4-(3-(4-chloro-3-fluorophenyl)-1-(2-(2,2,2-trifluoroethoxy)ethyl)-1H-pyrrolo[2,3-b]pyridine-6-carbonyl)-3,3-dimethylpiperazin-2-one]", "IC50": "20 to 10000"}
{"compound": "Cc1cc(N(C)C2CCN(C(=O)c3ccc4c(-c5ccc(Cl)c(F)c5)cn(C(C)(C)C)c4n3)CC2)nc(C)c1C(=O)O", "note": "[Example 147, 6-((1-(1-(tert-butyl)-3-(4-chloro-3-fluorophenyl)-1H-pyrrolo[2,3-b]pyridine-6-carbonyl)piperidin-4-yl)(methyl)amino)-2,4-dimethyinicotinic acid]", "IC50": "20 to 10000"}
{"compound": "COC(=O)c1c(C)cc(N2CCN(C(=O)c3ccc4c(n3)c(C(C)(C)C)nn4-c3ccc(Cl)c(F)c3)C(C)(C)C2)nc1C", "note": "[Example 58, methyl 6-(4-(3-(tert-butyl)-1-(4-chloro-3-fluorophenyl)-1H-pyrazolo[4,3-b]pyridine-5-carbonyl)-3,3-dimethylpiperazin-1-yl)-2,4-dimethylnicotinate]", "IC50": "> 10000"}
{"compound": "Cc1cccc(-c2cn(CC(C)C)c3nc(C(=O)N4CCNC(=O)C4(C)C)ccc23)c1", "note": "[Example 118, 4-(1-isobutyl-3-(m-tolyl)-1H-pyrrolo[2,3-b]pyridine-6-carbonyl)-3,3-dimethylpiperazin-2-one]", "IC50": "20 to 10000"}
